Test results taken from paper PMC5218480 (PLoS ONE, 2017).

System: MV-4-11 cells
Test: Gene expression microarray analysis (Affymetrix PrimeView) and GSEA
Assay type: cell-based, human
Parameters: RFU PODN (11730768_x_at) / Fold change /veh PODN (11730768_x_at) / RFU LINC00158 (11744669_a_at) / Fold change /veh LINC00158 (11744669_a_at) / RFU DUSP10 (11751237_a_at) / Fold change /veh DUSP10 (11751237_a_at) / RFU ID3 (11757404_x_at) / Fold change /veh ID3 (11757404_x_at) / RFU PLEKHG5 (11737974_s_at) / Fold change /veh PLEKHG5 (11737974_s_at) / RFU LRRC4B (11730491_at) / Fold change /veh LRRC4B (11730491_at) / RFU GIMAP4 (11747438_a_at) / Fold change /veh GIMAP4 (11747438_a_at) / RFU KRT8 (11758183_x_at) / Fold change /veh KRT8 (11758183_x_at) / RFU CNN1 (11734310_a_at) / Fold change /veh CNN1 (11734310_a_at) / RFU VPS37D (11726825_at) / Fold change /veh VPS37D (11726825_at) / RFU C10orf10 (11716522_x_at) / Fold change /veh C10orf10 (11716522_x_at) / RFU KIR2DL2 /// KIR2DL4 /// KIR2DL5A /// KIR2DL5B /// KIR2DS1 /// KIR2DS2 /// KIR2DS3 /// KIR2DS4 /// KIR3DL3 /// KIR3DL3 /// KIR3DS1 (11738374_at) / Fold change /veh KIR2DL2 /// KIR2DL4 /// KIR2DL5A /// KIR2DL5B /// KIR2DS1 /// KIR2DS2 /// KIR2DS3 /// KIR2DS4 /// KIR3DL3 /// KIR3DL3 /// KIR3DS1 (11738374_at) / RFU C1QL1 (11718748_at) / Fold change /veh C1QL1 (11718748_at) / RFU TMPRSS4 (11747572_a_at) / Fold change /veh TMPRSS4 (11747572_a_at) / RFU HAMP (11756126_x_at) / Fold change /veh HAMP (11756126_x_at) / RFU RNFT2 (11725882_a_at) / Fold change /veh RNFT2 (11725882_a_at) / RFU NR4A2 (11747474_a_at) / Fold change /veh NR4A2 (11747474_a_at) / RFU ABCC12 (11746883_a_at) / Fold change /veh ABCC12 (11746883_a_at) / RFU TMEM136 (11760407_x_at) / Fold change /veh TMEM136 (11760407_x_at) / RFU CLDN22 /// WWC2 (11732394_at) / Fold change /veh CLDN22 /// WWC2 (11732394_at) / RFU HLA-DPB1 (11760878_x_at) / Fold change /veh HLA-DPB1 (11760878_x_at) / RFU SPINT1 (11716480_a_at) / Fold change /veh SPINT1 (11716480_a_at) / RFU GAP43 (11754022_s_at) / Fold change /veh GAP43 (11754022_s_at) / RFU A4GNT (11735810_at) / Fold change /veh A4GNT (11735810_at) / RFU PRB3 (11715151_x_at) / Fold change /veh PRB3 (11715151_x_at) / RFU TUBB4B (11761932_at) / Fold change /veh TUBB4B (11761932_at) / RFU CAPN14 (11732068_a_at) / Fold change /veh CAPN14 (11732068_a_at) / RFU TMCC2 (11721928_a_at) / Fold change /veh TMCC2 (11721928_a_at) / RFU IRGQ (11745062_a_at) / Fold change /veh IRGQ (11745062_a_at) / RFU FAM174B (11720279_a_at) / Fold change /veh FAM174B (11720279_a_at) / RFU TMPRSS4 (11748680_a_at) / Fold change /veh TMPRSS4 (11748680_a_at) / RFU FAM212B (11763350_a_at) / Fold change /veh FAM212B (11763350_a_at) / RFU PLEKHG5 (11743358_a_at) / Fold change /veh PLEKHG5 (11743358_a_at) / RFU ZSCAN30 (11745921_a_at) / Fold change /veh ZSCAN30 (11745921_a_at) / RFU CMKLR1 (11741424_a_at) / Fold change /veh CMKLR1 (11741424_a_at) / RFU LOC101060620 /// MAPK8IP1 (11723275_at) / Fold change /veh LOC101060620 /// MAPK8IP1 (11723275_at) / RFU SPTSSB (11747773_x_at) / Fold change /veh SPTSSB (11747773_x_at) / RFU PRSS12 (11739890_at) / Fold change /veh PRSS12 (11739890_at) / RFU BIN1 (11741810_x_at) / Fold change /veh BIN1 (11741810_x_at) / RFU WNT11 (11732464_a_at) / Fold change /veh WNT11 (11732464_a_at) / RFU C10orf10 (11716521_a_at) / Fold change /veh C10orf10 (11716521_a_at) / RFU C5orf56 (11738089_at) / Fold change /veh C5orf56 (11738089_at) / RFU CYB561 (11721691_x_at) / Fold change /veh CYB561 (11721691_x_at) / RFU ANKRD19P (11752326_a_at) / Fold change /veh ANKRD19P (11752326_a_at) / RFU OR2T12 /// OR2T33 /// OR2T8 (11738714_s_at) / Fold change /veh OR2T12 /// OR2T33 /// OR2T8 (11738714_s_at) / RFU VCAN (11748164_a_at) / Fold change /veh VCAN (11748164_a_at) / RFU JSRP1 (11732532_at) / Fold change /veh JSRP1 (11732532_at) / RFU KRTAP10-11 (11738290_x_at) / Fold change /veh KRTAP10-11 (11738290_x_at) / RFU MYO3A (11730013_a_at) / Fold change /veh MYO3A (11730013_a_at) / RFU EBF3 (11725865_a_at) / Fold change /veh EBF3 (11725865_a_at) / RFU CAMK2N1 (11719241_x_at) / Fold change /veh CAMK2N1 (11719241_x_at) / RFU C5orf56 (11738088_a_at) / Fold change /veh C5orf56 (11738088_a_at) / RFU OLFML3 (11715873_a_at) / Fold change /veh OLFML3 (11715873_a_at) / RFU LOC100653217 /// NTM (11731650_a_at) / Fold change /veh LOC100653217 /// NTM (11731650_a_at) / RFU MAPK11 (11762145_a_at) / Fold change /veh MAPK11 (11762145_a_at) / RFU FIZ1 (11724087_x_at) / Fold change /veh FIZ1 (11724087_x_at) / RFU OASL (11726364_x_at) / Fold change /veh OASL (11726364_x_at) / RFU SOX15 (11748057_x_at) / Fold change /veh SOX15 (11748057_x_at) / RFU CD79A (11719716_a_at) / Fold change /veh CD79A (11719716_a_at) / RFU HIST1H1D (11736915_at) / Fold change /veh HIST1H1D (11736915_at) / RFU CASKIN2 (11723855_a_at) / Fold change /veh CASKIN2 (11723855_a_at) / RFU LOC730098 (11760151_x_at) / Fold change /veh LOC730098 (11760151_x_at) / RFU OR4N2 (11742367_at) / Fold change /veh OR4N2 (11742367_at) / RFU PRRT2 (11749266_a_at) / Fold change /veh PRRT2 (11749266_a_at) / RFU SNX32 (11753110_a_at) / Fold change /veh SNX32 (11753110_a_at) / RFU CDHR5 (11726645_a_at) / Fold change /veh CDHR5 (11726645_a_at) / RFU RCAN1 (11760418_a_at) / Fold change /veh RCAN1 (11760418_a_at) / RFU FAM167A (11723789_a_at) / Fold change /veh FAM167A (11723789_a_at) / RFU FAM26E (11764081_at) / Fold change /veh FAM26E (11764081_at) / RFU ISYNA1 (11749810_s_at) / Fold change /veh ISYNA1 (11749810_s_at) / RFU ACY1 (11761880_at) / Fold change /veh ACY1 (11761880_at) / RFU 11764098_at / Fold change /veh 11764098_at / RFU SAMD14 (11745864_x_at) / Fold change /veh SAMD14 (11745864_x_at) / RFU NPB (11741838_a_at) / Fold change /veh NPB (11741838_a_at) / RFU TMPRSS6 (11731388_a_at) / Fold change /veh TMPRSS6 (11731388_a_at) / RFU KRTAP10-2 (11738614_at) / Fold change /veh KRTAP10-2 (11738614_at) / RFU ARHGAP8 /// PRR5-ARHGAP8 (11727945_x_at) / Fold change /veh ARHGAP8 /// PRR5-ARHGAP8 (11727945_x_at) / RFU KRTAP5-7 /// NADSYN1 (11734609_at) / Fold change /veh KRTAP5-7 /// NADSYN1 (11734609_at) / RFU RASL12 (11751679_a_at) / Fold change /veh RASL12 (11751679_a_at) / RFU CDKN2B (11736163_a_at) / Fold change /veh CDKN2B (11736163_a_at) / RFU PRF1 (11729649_at) / Fold change /veh PRF1 (11729649_at) / RFU, ZNF638 /// ZNF638-IT1 / Fold change vs veh, ZNF638 /// ZNF638-IT1 / RFU, PANK3 / Fold change vs veh, PANK3 / RFU, SH3YL1 / Fold change vs veh, SH3YL1 / RFU, ZEB2 / Fold change vs veh, ZEB2 / RFU, NRIP1 / Fold change vs veh, NRIP1 / RFU, PTTG1IP / Fold change vs veh, PTTG1IP / RFU, CAPN2 / Fold change vs veh, CAPN2 / RFU, MED14 / Fold change vs veh, MED14 / RFU, SNORA58 / Fold change vs veh, SNORA58 / RFU, C1orf63 / Fold change vs veh, C1orf63 / RFU, LRRFIP1 / Fold change vs veh, LRRFIP1 / RFU, NDUFAF7 / Fold change vs veh, NDUFAF7 / RFU, SLC12A2 / Fold change vs veh, SLC12A2 / RFU, IBTK / Fold change vs veh, IBTK / RFU, ESF1 / Fold change vs veh, ESF1 / Fold change vs veh, TMEM50B / RFU, TAOK1 / Fold change vs veh, TAOK1 / RFU, ACBD3 / Fold change vs veh, ACBD3 / RFU, TMA16 / Fold change vs veh, TMA16 / RFU, RWDD3 / Fold change vs veh, RWDD3 / RFU, BCAT1 / Fold change vs veh, BCAT1 / RFU, EDEM3 / Fold change vs veh, EDEM3 / RFU, TMEM33 / Fold change vs veh, TMEM33 / RFU, WDR75 / Fold change vs veh, WDR75 / RFU, AHCTF1 / Fold change vs veh, AHCTF1 / RFU, TFRC / Fold change vs veh, TFRC / RFU, ZDHHC17 / Fold change vs veh, ZDHHC17 / RFU, NOM1 / Fold change vs veh, NOM1 / RFU, ARL8B / Fold change vs veh, ARL8B / RFU, ZBTB11 / Fold change vs veh, ZBTB11 / RFU, TAMM41 / Fold change vs veh, TAMM41 / RFU, KIAA1704 /// LOC100996395 / Fold change vs veh, KIAA1704 /// LOC100996395 / RFU, ING1 / Fold change vs veh, ING1 / RFU, TRMT61B / Fold change vs veh, TRMT61B / RFU, FUBP3 / Fold change vs veh, FUBP3 / RFU, TP53 / Fold change vs veh, TP53 / RFU, TNKS2 / Fold change vs veh, TNKS2 / RFU, ZFP14 / Fold change vs veh, ZFP14 / RFU, ACTR2 / Fold change vs veh, ACTR2 / RFU, PPP3R1 / Fold change vs veh, PPP3R1 / RFU, PIK3R1 / Fold change vs veh, PIK3R1 / RFU, HNRNPA1 / Fold change vs veh, HNRNPA1 / RFU, RNF170 / Fold change vs veh, RNF170 / RFU, ZNF28 / Fold change vs veh, ZNF28 / RFU, RNGTT / Fold change vs veh, RNGTT / RFU, OGT / Fold change vs veh, OGT / RFU, BRD1 / Fold change vs veh, BRD1 / RFU, MARS / Fold change vs veh, MARS / RFU, ZNF655 / Fold change vs veh, ZNF655 / RFU, FAHD1 / Fold change vs veh, FAHD1 / RFU, BDP1 / Fold change vs veh, BDP1 / RFU, LRRCC1 / Fold change vs veh, LRRCC1 / RFU, ARID1A / Fold change vs veh, ARID1A / RFU, ZNF146 / Fold change vs veh, ZNF146 / RFU, ZNF330 / Fold change vs veh, ZNF330 / RFU, GPN3 / Fold change vs veh, GPN3 / RFU, C9orf123 / Fold change vs veh, C9orf123 / RFU, N4BP2L2 / Fold change vs veh, N4BP2L2 / RFU, ARFIP1 / Fold change vs veh, ARFIP1 / RFU, FAM179B / Fold change vs veh, FAM179B / RFU, BCL10 / Fold change vs veh, BCL10 / RFU, UHRF1BP1L / Fold change vs veh, UHRF1BP1L / RFU, BET1 / Fold change vs veh, BET1 / RFU, CNOT2 / Fold change vs veh, CNOT2 / RFU, ZNF268 / Fold change vs veh, ZNF268 / Fold change vs veh, ZNF507 / RFU, DGCR2 / Fold change vs veh, DGCR2 / RFU, WDSUB1 / Fold change vs veh, WDSUB1 / Fold change vs veh, HSP90B1 /// MIR3652 / RFU, ADSS / Fold change vs veh, ADSS / RFU, GK / Fold change vs veh, GK / RFU, ZNF148 / Fold change vs veh, ZNF148 / RFU, TAF9 / Fold change vs veh, TAF9 / RFU, SLC1A5 / Fold change vs veh, SLC1A5 / RFU, SLMO2 / Fold change vs veh, SLMO2 / RFU, ABCC4 / Fold change vs veh, ABCC4 / RFU, LOC101060439 /// RAP1B / Fold change vs veh, LOC101060439 /// RAP1B / RFU, RFX7 / Fold change vs veh, RFX7 / RFU, GTPBP10 / Fold change vs veh, GTPBP10 / RFU, CNEP1R1 / Fold change vs veh, CNEP1R1 / RFU, BIVM-ERCC5 /// ERCC5 / Fold change vs veh, BIVM-ERCC5 /// ERCC5 / RFU, ILF3 / Fold change vs veh, ILF3 / RFU 11762660_at / Fold change /veh 11762660_at / RFU VCAN (11757783_s_at) / Fold change /veh VCAN (11757783_s_at) / RFU DDX43 (11728927_at) / Fold change /veh DDX43 (11728927_at) / RFU KRT8 (11758188_x_at) / Fold change /veh KRT8 (11758188_x_at) / RFU NKD1 (11759106_at) / Fold change /veh NKD1 (11759106_at) / RFU SRD5A1 (11742802_a_at) / Fold change /veh SRD5A1 (11742802_a_at) / RFU TPSAB1 /// TPSB2 (11721975_s_at) / Fold change /veh TPSAB1 /// TPSB2 (11721975_s_at) / RFU GSTM3 (11746129_a_at) / Fold change /veh GSTM3 (11746129_a_at) / RFU IL23R (11737362_x_at) / Fold change /veh IL23R (11737362_x_at) / RFU TMEM51 (11727254_a_at) / Fold change /veh TMEM51 (11727254_a_at) / RFU PIWIL2 (11732686_x_at) / Fold change /veh PIWIL2 (11732686_x_at) / RFU ORM1 (11744905_x_at) / Fold change /veh ORM1 (11744905_x_at) / RFU CCDC152 (11743942_at) / Fold change /veh CCDC152 (11743942_at) / RFU ECM1 (11717891_a_at) / Fold change /veh ECM1 (11717891_a_at) / RFU IL23R (11748794_a_at) / Fold change /veh IL23R (11748794_a_at) / RFU TNFAIP8L3 (11732012_x_at) / Fold change /veh TNFAIP8L3 (11732012_x_at) / RFU MBOAT4 (11741988_at) / Fold change /veh MBOAT4 (11741988_at) / RFU 11764193_at / Fold change /veh 11764193_at / RFU TMEM53 (11763286_at) / Fold change /veh TMEM53 (11763286_at) / RFU MAGEB2 (11727129_at) / Fold change /veh MAGEB2 (11727129_at) / RFU TMEM200A (11744735_a_at) / Fold change /veh TMEM200A (11744735_a_at) / RFU CCDC152 (11751479_a_at) / Fold change /veh CCDC152 (11751479_a_at) / RFU FAM211A (11726209_a_at) / Fold change /veh FAM211A (11726209_a_at) / RFU RGS16 (11746705_a_at) / Fold change /veh RGS16 (11746705_a_at) / RFU VCAN (11755009_s_at) / Fold change /veh VCAN (11755009_s_at) / RFU RHOB (11743442_s_at) / Fold change /veh RHOB (11743442_s_at) / RFU RGS16 (11720943_a_at) / Fold change /veh RGS16 (11720943_a_at) / RFU RGS16 (11720944_at) / Fold change /veh RGS16 (11720944_at) / RFU, VPS4B / Fold change vs veh, VPS4B / RFU, CREB1 / Fold change vs veh, CREB1 / RFU, DNAJC13 / Fold change vs veh, DNAJC13 / RFU, GNAQ / Fold change vs veh, GNAQ / RFU, CDK5R1 / Fold change vs veh, CDK5R1 / RFU, ZRANB3 / Fold change vs veh, ZRANB3 / RFU, CUL4A / Fold change vs veh, CUL4A / RFU, CCNY / Fold change vs veh, CCNY / RFU, UFL1 / Fold change vs veh, UFL1 / RFU, COG3 / Fold change vs veh, COG3 / RFU, DIAPH2 / Fold change vs veh, DIAPH2 / RFU, SKA2 / Fold change vs veh, SKA2 / RFU, AFF3 / Fold change vs veh, AFF3 / RFU, LMF1 / Fold change vs veh, LMF1 / RFU, IPO11 / Fold change vs veh, IPO11 / RFU, DFFB / Fold change vs veh, DFFB / RFU, FOXP1 / Fold change vs veh, FOXP1 / RFU, CARD8 / Fold change vs veh, CARD8 / RFU, STRN3 / Fold change vs veh, STRN3 / RFU, ADK / Fold change vs veh, ADK / RFU, RASSF2 / Fold change vs veh, RASSF2 / RFU, WIPF1 / Fold change vs veh, WIPF1 / RFU, LARP1B / Fold change vs veh, LARP1B / RFU, RASA1 / Fold change vs veh, RASA1 / RFU, RB1 / Fold change vs veh, RB1 / RFU, PPFIA1 / Fold change vs veh, PPFIA1 / RFU, MAT2A / Fold change vs veh, MAT2A / RFU, CCT5 / Fold change vs veh, CCT5 / RFU, WDR92 / Fold change vs veh, WDR92 / RFU, CUX1 / Fold change vs veh, CUX1 / RFU, TTC7A / Fold change vs veh, TTC7A / RFU, TMEM135 / Fold change vs veh, TMEM135 / RFU, DEPTOR / Fold change vs veh, DEPTOR / RFU, CPM / Fold change vs veh, CPM / RFU, DNAJB6 / Fold change vs veh, DNAJB6 / RFU, CACNA2D3 / Fold change vs veh, CACNA2D3 / RFU, DTX4 / Fold change vs veh, DTX4 / RFU, TFCP2 / Fold change vs veh, TFCP2 / RFU, GMCL1 /// GMCL1P1 / Fold change vs veh, GMCL1 /// GMCL1P1 / RFU, AEBP2 / Fold change vs veh, AEBP2 / RFU, SNHG1 /// SNORD22 /// SNORD25 /// SNORD26 /// SNORD27 /// SNORD28 /// SNORD29 /// SNORD31 / Fold change vs veh, SNHG1 /// SNORD22 /// SNORD25 /// SNORD26 /// SNORD27 /// SNORD28 /// SNORD29 /// SNORD31 / Fold change (Aza/veh), C12orf56 (ProbeSet 11735607_a_at) / Fold change (ACY-1035/veh), C12orf56 (ProbeSet 11735607_a_at) / Fold change (Aza/veh), FGFR1OP (ProbeSet 11751329_s_at) / Fold change (ACY-1035/veh), FGFR1OP (ProbeSet 11751329_s_at) / Fold change (Aza/veh), VPS36 (ProbeSet 11739960_a_at) / Fold change (ACY-1035/veh), VPS36 (ProbeSet 11739960_a_at) / RFU SYPL1 (11715823_x_at) / Fold change /veh SYPL1 (11715823_x_at) / RFU IGFBP7 (11715501_s_at) / Fold change /veh IGFBP7 (11715501_s_at) / RFU REEP3 (11722064_at) / Fold change /veh REEP3 (11722064_at) / RFU IGLL1 (11728026_x_at) / Fold change /veh IGLL1 (11728026_x_at): dose or concentration left out as unconfirmed
Conditions: MV-4-11 cells, 48 hours

Nc1ccc(-c2cccs2)cc1NC(=O)c1ccc2c(c1)cc(C1CC1)n2CCN1CCOCC1 [ACY-1035]
RFU PRB3 (11715151_x_at): 8.09 RFU
